From patent publication US7118895B2, “Process for producing aglycon by using diglycosidase and flavor-improved food containing the aglycon and converting agent to be used in the process” (Amano Enzyme Inc., priority 2000, dated 2006)

Tested on: Crude diglycosidase
Experiment: Examination of pH in the conversion into isoflavone aglycons by diglycosidase using soybean materials
Assay type: biochemical, Penicillium multicolor IAM7153
Parameters: Decomposition efficiency of genistin family in soymilk / Decomposition efficiency of genistin family in defatted soybean / Decomposition efficiency of daidzin family in defatted soybean: concentration or dose not given beside the values
Conditions: for Decomposition efficiency of daidzin family in roasted soy flour: 55° C.
Outline: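 HPLC detection of isoflavone glycosides and aglycons after ethanol quench at 0, 1, 3 and 6 h. Reactions ran at 55° C over pH 2–11, with crude diglycosidase (enzyme solution at 1.88 AU/mL) added to suspended roasted soy flour, soymilk, defatted soybean or concentrated soy protein.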

[1] = pH4.8, heat treatment of enzyme: no, reaction time 0 h
[2] = pH4.8, heat treatment of enzyme: no, reaction time 1 h
[3] = pH4.8, heat treatment of enzyme: no, reaction time 3 h
[4] = pH4.8, heat treatment of enzyme: no, reaction time 6 h
[5] = pH4.8, heat treatment of enzyme: yes, reaction time 6 h
[6] = pH6.6, heat treatment of enzyme: no, reaction time 0 h
[7] = pH6.6, heat treatment of enzyme: no, reaction time 1 h
[8] = pH6.6, heat treatment of enzyme: no, reaction time 3 h
[9] = pH6.6, heat treatment of enzyme: no, reaction time 6 h
[10] = pH6.6, heat treatment of enzyme: yes, reaction time 6 h

O=c1c(-c2ccc(O)cc2)coc2cc(O[C@@H]3O[C@H](CO)[C@@H](O)[C@H](O)[C@H]3O)ccc12 [daidzin]
Decomposition efficiency of daidzin family in concentrated soybean protein (pH1.6, heat treatment of enzyme: no, reaction time 0 h): 52.5% | Decomposition efficiency of daidzin family in concentrated soybean protein (pH1.6, heat treatment of enzyme: no, reaction time 1 h): 53.0% | Decomposition efficiency of daidzin family in concentrated soybean protein (pH1.6, heat treatment of enzyme: no, reaction time 3 h): 55.0% | Decomposition efficiency of daidzin family in concentrated soybean protein (pH1.6, heat treatment of enzyme: no, reaction time 6 h): 57.2% | Decomposition efficiency of daidzin family in concentrated soybean protein (pH1.6, heat treatment of enzyme: yes, reaction time 6 h): 59.0% | Decomposition efficiency of daidzin family in roasted soy flour (pH2, heat treatment of enzyme no, reaction time 0 h): 49.1 | Decomposition efficiency of daidzin family in roasted soy flour (pH2, heat treatment of enzyme no, reaction time 1 h): 47.6 | Decomposition efficiency of daidzin family in roasted soy flour (pH2, heat treatment of enzyme no, reaction time 3 h): 50.3 | Decomposition efficiency of daidzin family in roasted soy flour (pH2, heat treatment of enzyme no, reaction time 6 h): 53.1 | Decomposition efficiency of daidzin family in roasted soy flour (pH2, heat treatment of enzyme yes, reaction time 6 h): 53.8 | Decomposition efficiency of daidzin family in soymilk (pH2.3, heat treatment of enzyme: no, reaction time 0 h): 34.4% | Decomposition efficiency of daidzin family in soymilk (pH2.3, heat treatment of enzyme: no, reaction time 1 h): not detected | Decomposition efficiency of daidzin family in soymilk (pH2.3, heat treatment of enzyme: no, reaction time 3 h): not detected | Decomposition efficiency of daidzin family in soymilk (pH2.3, heat treatment of enzyme: no, reaction time 6 h): not detected | Decomposition efficiency of daidzin family in soymilk (pH2.3, heat treatment of enzyme: yes, reaction time 6 h): 38.8% | Decomposition efficiency of daidzin family in defatted soybean (pH2.6, heat treatment of enzyme: no, reaction time 0 h): 45.8% | Decomposition efficiency of daidzin family in defatted soybean (pH2.6, heat treatment of enzyme: no, reaction time 1 h): 37.5% | Decomposition efficiency of daidzin family in defatted soybean (pH2.6, heat treatment of enzyme: no, reaction time 3 h): 17.3% | Decomposition efficiency of daidzin family in defatted soybean (pH2.6, heat treatment of enzyme: no, reaction time 6 h): 16.9% | Decomposition efficiency of daidzin family in defatted soybean (pH2.6, heat treatment of enzyme: yes, reaction time 6 h): 48.0% | Decomposition efficiency of daidzin family in concentrated soybean protein (pH2.7, heat treatment of enzyme: no, reaction time 0 h): 52.5% | Decomposition efficiency of daidzin family in concentrated soybean protein (pH2.7, heat treatment of enzyme: no, reaction time 1 h): 12.9% | Decomposition efficiency of daidzin family in concentrated soybean protein (pH2.7, heat treatment of enzyme: no, reaction time 3 h): 12.5% | Decomposition efficiency of daidzin family in concentrated soybean protein (pH2.7, heat treatment of enzyme: no, reaction time 6 h): 9.3% | Decomposition efficiency of daidzin family in concentrated soybean protein (pH2.7, heat treatment of enzyme: yes, reaction time 6 h): 53.0% | Decomposition efficiency of daidzin family in roasted soy flour (pH3, heat treatment of enzyme no, reaction time 0 h): 49.1 | Decomposition efficiency of daidzin family in roasted soy flour (pH3, heat treatment of enzyme no, reaction time 1 h): not detected | Decomposition efficiency of daidzin family in roasted soy flour (pH3, heat treatment of enzyme no, reaction time 3 h): not detected | Decomposition efficiency of daidzin family in roasted soy flour (pH3, heat treatment of enzyme no, reaction time 6 h): not detected | Decomposition efficiency of daidzin family in roasted soy flour (pH3, heat treatment of enzyme yes, reaction time 6 h): 49.0 | Decomposition efficiency of daidzin family in defatted soybean (pH3.4, heat treatment of enzyme: no, reaction time 0 h): 45.8% | Decomposition efficiency of daidzin family in defatted soybean (pH3.4, heat treatment of enzyme: no, reaction time 1 h): not detected | Decomposition efficiency of daidzin family in defatted soybean (pH3.4, heat treatment of enzyme: no, reaction time 3 h): not detected | Decomposition efficiency of daidzin family in defatted soybean (pH3.4, heat treatment of enzyme: no, reaction time 6 h): not detected | Decomposition efficiency of daidzin family in defatted soybean (pH3.4, heat treatment of enzyme: yes, reaction time 6 h): 47.8% | Decomposition efficiency of daidzin family in soymilk (pH3.5, heat treatment of enzyme: no, reaction time 0 h): 34.4% | Decomposition efficiency of daidzin family in soymilk (pH3.5, heat treatment of enzyme: no, reaction time 1 h): not detected | Decomposition efficiency of daidzin family in soymilk (pH3.5, heat treatment of enzyme: no, reaction time 3 h): not detected | Decomposition efficiency of daidzin family in soymilk (pH3.5, heat treatment of enzyme: no, reaction time 6 h): not detected | Decomposition efficiency of daidzin family in soymilk (pH3.5, heat treatment of enzyme: yes, reaction time 6 h): 40.4% | Decomposition efficiency of daidzin family in concentrated soybean protein (pH3.7, heat treatment of enzyme: no, reaction time 0 h): 52.5% | Decomposition efficiency of daidzin family in concentrated soybean protein (pH3.7, heat treatment of enzyme: no, reaction time 1 h): not detected | Decomposition efficiency of daidzin family in concentrated soybean protein (pH3.7, heat treatment of enzyme: no, reaction time 3 h): not detected | Decomposition efficiency of daidzin family in concentrated soybean protein (pH3.7, heat treatment of enzyme: no, reaction time 6 h): not detected | Decomposition efficiency of daidzin family in concentrated soybean protein (pH3.7, heat treatment of enzyme: yes, reaction time 6 h): 52.5% | Decomposition efficiency of daidzin family in roasted soy flour (pH4, heat treatment of enzyme no, reaction time 0 h): 48.7 | Decomposition efficiency of daidzin family in roasted soy flour (pH4, heat treatment of enzyme no, reaction time 1 h): not detected | Decomposition efficiency of daidzin family in roasted soy flour (pH4, heat treatment of enzyme no, reaction time 3 h): not detected | Decomposition efficiency of daidzin family in roasted soy flour (pH4, heat treatment of enzyme no, reaction time 6 h): not detected | Decomposition efficiency of daidzin family in roasted soy flour (pH4, heat treatment of enzyme yes, reaction time 6 h): 48.6 | Decomposition efficiency of daidzin family in defatted soybean [1]: 43.5% | Decomposition efficiency of daidzin family in soymilk [1]: 34.9% | Decomposition efficiency of daidzin family in defatted soybean [2]: not detected | Decomposition efficiency of daidzin family in soymilk [2]: not detected | Decomposition efficiency of daidzin family in defatted soybean [3]: not detected | Decomposition efficiency of daidzin family in soymilk [3]: not detected | Decomposition efficiency of daidzin family in defatted soybean [4]: not detected | Decomposition efficiency of daidzin family in soymilk [4]: not detected | Decomposition efficiency of daidzin family in defatted soybean [5]: 37.1% | Decomposition efficiency of daidzin family in soymilk [5]: 41.2% | Decomposition efficiency of daidzin family in roasted soy flour (pH5, heat treatment of enzyme no, reaction time 0 h): 48.7 | Decomposition efficiency of daidzin family in roasted soy flour (pH5, heat treatment of enzyme no, reaction time 1 h): not detected | Decomposition efficiency of daidzin family in roasted soy flour (pH5, heat treatment of enzyme no, reaction time 3 h): not detected | Decomposition efficiency of daidzin family in roasted soy flour (pH5, heat treatment of enzyme no, reaction time 6 h): not detected | Decomposition efficiency of daidzin family in roasted soy flour (pH5, heat treatment of enzyme yes, reaction time 6 h): 50.6 | Decomposition efficiency of daidzin family in concentrated soybean protein (pH5.1, heat treatment of enzyme: no, reaction time 0 h): 52.5% | Decomposition efficiency of daidzin family in concentrated soybean protein (pH5.1, heat treatment of enzyme: no, reaction time 1 h): not detected | Decomposition efficiency of daidzin family in concentrated soybean protein (pH5.1, heat treatment of enzyme: no, reaction time 3 h): not detected | Decomposition efficiency of daidzin family in concentrated soybean protein (pH5.1, heat treatment of enzyme: no, reaction time 6 h): not detected | Decomposition efficiency of daidzin family in concentrated soybean protein (pH5.1, heat treatment of enzyme: yes, reaction time 6 h): 53.4% | Decomposition efficiency of daidzin family in defatted soybean (pH5.4, heat treatment of enzyme: no, reaction time 0 h): 43.5% | Decomposition efficiency of daidzin family in defatted soybean (pH5.4, heat treatment of enzyme: no, reaction time 1 h): not detected | Decomposition efficiency of daidzin family in defatted soybean (pH5.4, heat treatment of enzyme: no, reaction time 3 h): not detected | Decomposition efficiency of daidzin family in defatted soybean (pH5.4, heat treatment of enzyme: no, reaction time 6 h): not detected | Decomposition efficiency of daidzin family in defatted soybean (pH5.4, heat treatment of enzyme: yes, reaction time 6 h): not detected | Decomposition efficiency of daidzin family in soymilk (pH6.2, heat treatment of enzyme: no, reaction time 0 h): 34.9% | Decomposition efficiency of daidzin family in soymilk (pH6.2, heat treatment of enzyme: no, reaction time 1 h): not detected | Decomposition efficiency of daidzin family in soymilk (pH6.2, heat treatment of enzyme: no, reaction time 3 h): not detected | Decomposition efficiency of daidzin family in soymilk (pH6.2, heat treatment of enzyme: no, reaction time 6 h): not detected | Decomposition efficiency of daidzin family in soymilk (pH6.2, heat treatment of enzyme: yes, reaction time 6 h): 40.6% | Decomposition efficiency of daidzin family in roasted soy flour (pH6.5, heat treatment of enzyme no, reaction time 0 h): 48.4 | Decomposition efficiency of daidzin family in roasted soy flour (pH6.5, heat treatment of enzyme no, reaction time 1 h): not detected | Decomposition efficiency of daidzin family in roasted soy flour (pH6.5, heat treatment of enzyme no, reaction time 3 h): not detected | Decomposition efficiency of daidzin family in roasted soy flour (pH6.5, heat treatment of enzyme no, reaction time 6 h): not detected | Decomposition efficiency of daidzin family in roasted soy flour (pH6.5, heat treatment of enzyme yes, reaction time 6 h): 51.9 | Decomposition efficiency of daidzin family in concentrated soybean protein [6]: 52.1% | Decomposition efficiency of daidzin family in defatted soybean [6]: 43.6% | Decomposition efficiency of daidzin family in concentrated soybean protein [7]: 5.0% | Decomposition efficiency of daidzin family in defatted soybean [7]: not detected | Decomposition efficiency of daidzin family in concentrated soybean protein [8]: not detected | Decomposition efficiency of daidzin family in defatted soybean [8]: not detected | Decomposition efficiency of daidzin family in concentrated soybean protein [9]: not detected | Decomposition efficiency of daidzin family in defatted soybean [9]: not detected | Decomposition efficiency of daidzin family in concentrated soybean protein [10]: 55.1% | Decomposition efficiency of daidzin family in defatted soybean [10]: 9.3% | Decomposition efficiency of daidzin family in soymilk (pH7.2, heat treatment of enzyme: no, reaction time 0 h): 34.9% | Decomposition efficiency of daidzin family in soymilk (pH7.2, heat treatment of enzyme: no, reaction time 1 h): not detected | Decomposition efficiency of daidzin family in soymilk (pH7.2, heat treatment of enzyme: no, reaction time 3 h): not detected | Decomposition efficiency of daidzin family in soymilk (pH7.2, heat treatment of enzyme: no, reaction time 6 h): not detected | Decomposition efficiency of daidzin family in soymilk (pH7.2, heat treatment of enzyme: yes, reaction time 6 h): 41.5% | Decomposition efficiency of daidzin family in defatted soybean (pH7.8, heat treatment of enzyme: no, reaction time 0 h): 44.7% | Decomposition efficiency of daidzin family in defatted soybean (pH7.8, heat treatment of enzyme: no, reaction time 1 h): 13.3% | Decomposition efficiency of daidzin family in defatted soybean (pH7.8, heat treatment of enzyme: no, reaction time 3 h): 10.1% | Decomposition efficiency of daidzin family in defatted soybean (pH7.8, heat treatment of enzyme: no, reaction time 6 h): 9.4% | Decomposition efficiency of daidzin family in defatted soybean (pH7.8, heat treatment of enzyme: yes, reaction time 6 h): 41.6% | Decomposition efficiency of daidzin family in roasted soy flour (pH8.5, heat treatment of enzyme no, reaction time 0 h): 54.1 | Decomposition efficiency of daidzin family in roasted soy flour (pH8.5, heat treatment of enzyme no, reaction time 1 h): 20.4 | Decomposition efficiency of daidzin family in roasted soy flour (pH8.5, heat treatment of enzyme no, reaction time 3 h): 13.3 | Decomposition efficiency of daidzin family in roasted soy flour (pH8.5, heat treatment of enzyme no, reaction time 6 h): 10.2 | Decomposition efficiency of daidzin family in roasted soy flour (pH8.5, heat treatment of enzyme yes, reaction time 6 h): 58.8 | Decomposition efficiency of daidzin family in concentrated soybean protein (pH8.6, heat treatment of enzyme: no, reaction time 0 h): 56.1% | Decomposition efficiency of daidzin family in concentrated soybean protein (pH8.6, heat treatment of enzyme: no, reaction time 1 h): 50.8% | Decomposition efficiency of daidzin family in concentrated soybean protein (pH8.6, heat treatment of enzyme: no, reaction time 3 h): 45.0% | Decomposition efficiency of daidzin family in concentrated soybean protein (pH8.6, heat treatment of enzyme: no, reaction time 6 h): 34.5% | Decomposition efficiency of daidzin family in concentrated soybean protein (pH8.6, heat treatment of enzyme: yes, reaction time 6 h): 59.1% | Decomposition efficiency of daidzin family in soymilk (pH11.6, heat treatment of enzyme: no, reaction time 0 h): 38.8% | Decomposition efficiency of daidzin family in soymilk (pH11.6, heat treatment of enzyme: no, reaction time 1 h): not detected | Decomposition efficiency of daidzin family in soymilk (pH11.6, heat treatment of enzyme: no, reaction time 3 h): not detected | Decomposition efficiency of daidzin family in soymilk (pH11.6, heat treatment of enzyme: no, reaction time 6 h): not detected | Decomposition efficiency of daidzin family in soymilk (pH11.6, heat treatment of enzyme: yes, reaction time 6 h): 44.6%
